What was measured:
[1] = biological target: T1, FIBCD1 (the FReD of FIBCD1) (Homo sapiens, UniProt Q8N539); assay: Pull-down assay of FIBCD1 (FReD) with insoluble polysaccharides; assay type: binding; details: 20 μg FIBCD1 FReD, 2 mg insoluble substance
T1 construct: 20 μg of the FIBCD1 (the FReD of FIBCD1)
T1 sequence (Q8N539 235-458 limits assumed): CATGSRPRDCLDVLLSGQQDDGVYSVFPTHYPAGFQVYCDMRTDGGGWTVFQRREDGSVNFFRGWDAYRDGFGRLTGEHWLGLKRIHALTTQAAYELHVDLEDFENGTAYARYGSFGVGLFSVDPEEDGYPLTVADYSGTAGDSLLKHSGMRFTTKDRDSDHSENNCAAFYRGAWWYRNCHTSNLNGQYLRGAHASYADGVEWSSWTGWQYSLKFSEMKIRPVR
Experimental: (B) Microtiterplates were coated with LTA, mannan, peptidoglycan or NAc-BSA and increasing concentrations of FIBCD1 was added. (C) Pull-down assays where 20 μg of the FIBCD1 (the FReD of FIBCD1) or as a positive control 20 μg of wheat germ agglutinin (WGA) was added to 2 mg insoluble chitin, cellulose, zymozane or beta-glucan. […] BSA was used as control. Pellet fractions were analyzed by SDS-PAGE and Coomassie blue staining.

[2] = system: mice; details: cited from earlier work
[3] = system: allergic mouse model; details: oral administration; cited from earlier work
[4] = system: spleen cells isolated from the ragweed-immunized mice; details: ragweed/chitin stimulation, 3 days; cited from earlier work
[5] = biological target: T2, acetylated BSA (Bos taurus, UniProt P02769); assay: Binding of mutated forms of the FReD of FIBCD1 to acetylated BSA (ELISA); details: site directed mutagenesis of FIBCD1 FReD
T2 construct: purchased Sigma
T2 sequence (P02769 25-607): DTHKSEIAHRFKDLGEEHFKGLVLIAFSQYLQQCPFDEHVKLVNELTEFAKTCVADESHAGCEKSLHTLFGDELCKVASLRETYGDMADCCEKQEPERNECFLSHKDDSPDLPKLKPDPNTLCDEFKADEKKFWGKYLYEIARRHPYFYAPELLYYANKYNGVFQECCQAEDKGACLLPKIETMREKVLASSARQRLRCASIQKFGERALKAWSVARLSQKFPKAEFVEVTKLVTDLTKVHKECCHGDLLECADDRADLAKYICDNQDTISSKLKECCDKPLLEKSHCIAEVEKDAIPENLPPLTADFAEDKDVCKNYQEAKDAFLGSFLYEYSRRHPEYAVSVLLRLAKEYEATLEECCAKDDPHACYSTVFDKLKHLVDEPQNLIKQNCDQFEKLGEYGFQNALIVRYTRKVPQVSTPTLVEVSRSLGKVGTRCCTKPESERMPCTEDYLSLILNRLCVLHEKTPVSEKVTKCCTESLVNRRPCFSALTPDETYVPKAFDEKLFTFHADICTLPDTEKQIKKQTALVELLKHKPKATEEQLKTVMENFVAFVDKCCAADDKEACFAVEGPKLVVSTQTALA
Experimental: Microtiter plates were coated with acetylated BSA or BSA and blocked with TBS/Tw before being incubated with FIBCD1 samples diluted in TBS/Tw (5 mM CaCl2). The FIBCD1 samples were added from 1 μg/ml in a twofold dilution series. The signal from binding of protein to BSA was subtracted from the signal from binding to acetylated BSA. The resulting normalized signals were then expressed as a percentage of the signal from FIBCD1FReD at 1 μg/ml, which was set at 100%. The experiment was repeated three times.
Generation of HEK293 and CHO cells expressing recombinant forms of FIBCD1 In order to generate cells expressing recombinant forms of FIBCD1, the Flp-In™ system (Invitrogen) was utilized. In this system the cDNA is integrated into a specific genomic site. Flp-In™ T-REx™ HEK293 cells or CHO Flp-In™ T-REx™ (Invitrogen) was used as host cells. HEK293 cells were cultured in Dulbecco's modified Eagle medium (DMEM; Invitrogen) and CHO cells in Hams F12 medium (Invitrogen) both containing penicillin (100 units/ml), streptomycin (100 μg/ml), 2 mM L-glutamine and 10% fetal bovine serum (Invitrogen). At approximately 50% confluency, cells were co-transfected (ratio 1:9) with the pSecTag/FRT/V5-His TOPO® TA or pcDNA/FRT/V5-His TOPO® TA containing the FIBCD1 construct and the pOG44 vector encoding Flp recombinase, using the jetPEI™ transfection kit (Polyplus-transfection SAS, Illkirch cedex, France). The recombinase mediates insertion of the expression vectors into the genomic integration site. Integration of the vectors confers hygromycin resistance. Thus, 48 hours after transfection the HEK293 and CHO cells were selected for stable integration of the FIBCD1 constructs with 150 μg/ml and 800 μg/ml hygromycin B (Invitrogen), respectively. Hygromycin resistant clones were obtained after two weeks of culture. At confluence cells were transferred to DMEM or Hams F12 medium without serum. Supernatants were harvested after 72 hours of expression and analyzed by SDS-PAGE and Western blotting. […]

## chitin
[1]
  binding of FIBCD1 in pull-down: detected
[2]; instilled in the lung (or given intraperitoneally)
  accumulation of IL-4 and IL-13 expressing cells including Th2 cells, eosinophils and basophils: induced the accumulation
[3]
  lung eosinophilia: down-regulates
  serum IgE levels: down-regulates
[4]
  IFN-γ production: increase
  IL-4 levels: significant decreases
  IL-5 levels: significant decreases
  IL-10 levels: significant decreases

## AMCase: acidic mammalian chitinase, an endo-β-1,3... see b8: endo-β-1,4-N-acetylglucosaminidase
[2]; pre-treatment with AMCase
  chitin-induced cell infiltration: inhibited

B1: H415G: single mutation form of the FReD of FIBCD1 (protein)
chain: ATGSRPRDCLDVLLSGQQDDGVYSVFPTHYPAGFQVYCDMRTDGGGWTVFQRREDGSVNFFRGWDAYRDGFGRLTGEHWLGLKRIHALTTQAAYELHVDLEDFENGTAYARYGSFGVGLFSVDPEEDGYPLTVADYSGTAGDSLLKHSGMRFTTKDRDSDHSENNCAAFYRGAWWYRNCGTSNLNGQYLRGAHASYADGVEWSSWTGWQYSLKFSEMKIRPVREDR
[5]
  binding of mutated FIBCD1 to NAc-BSA: completely arrogate

B2: A432V: single mutation form of the FReD of FIBCD1 (protein)
chain: ATGSRPRDCLDVLLSGQQDDGVYSVFPTHYPAGFQVYCDMRTDGGGWTVFQRREDGSVNFFRGWDAYRDGFGRLTGEHWLGLKRIHALTTQAAYELHVDLEDFENGTAYARYGSFGVGLFSVDPEEDGYPLTVADYSGTAGDSLLKHSGMRFTTKDRDSDHSENNCAAFYRGAWWYRNCHTSNLNGQYLRGAHASYVDGVEWSSWTGWQYSLKFSEMKIRPVREDR
[5]
  binding of mutated FIBCD1 to NAc-BSA: completely arrogate

B3: W443S: single mutation form of the FReD of FIBCD1 (protein)
chain: ATGSRPRDCLDVLLSGQQDDGVYSVFPTHYPAGFQVYCDMRTDGGGWTVFQRREDGSVNFFRGWDAYRDGFGRLTGEHWLGLKRIHALTTQAAYELHVDLEDFENGTAYARYGSFGVGLFSVDPEEDGYPLTVADYSGTAGDSLLKHSGMRFTTKDRDSDHSENNCAAFYRGAWWYRNCHTSNLNGQYLRGAHASYADGVEWSSWTGSQYSLKFSEMKIRPVREDR
[5]
  binding of mutated FIBCD1 to NAc-BSA: partially arrogated

Source: patent publication US20120020958A1, “FIBCD1 FOR THE PREVENTION AND TREATMENT OF DISEASES” (Dansk Universitet, priority 2008, published 2012)
